From PMC4832243, “Discovery of Potent VEGFR-2 Inhibitors based on Furopyrimidine and Thienopyrimidne Scaffolds as Cancer Targeting Agents” (Scientific Reports, 2016)

What was measured:
[1] = system: CD31 and CD34 (% MVD); test: Immunohistochemistry of EAC solid tumor sections, microvessel density (CD31, CD34); settings: oral treatment of EAC-bearing mice
[2] = system: VEGF-induced vascular permeability (Evans Blue extravasation); test: Miles vascular permeability assay; design: species or system mice; settings: in vivo; 10 mg/kg (Fig. 15)
Protocol: Miles Vascular Permeability Assay. One to two days prior to the experiment, mice were shaved to expose the skin. Mice were anesthetized with intra-peritoneal injection of Avertin. A sterile solution of 1% Evans Blue (EB) in PBS was prepared and 100 μl was injected IV into the tail vein, using a needle (small gauge, 27–30) at a 10–15 degree angle. The animals were then left for (30–60) min. VEGF (50 μl of 1 ng/μl) and 50 μl of PBS with 0.05% gelatin were injected intradermally using a 30-gauge needle into the skin overlying the back. After 20 min, the animals were sacrificed by cervical dislocation that is recommended to limit significant interference with vascular permeability. The skin was opened, exposed and representative pictures were taken to assess the intensity of EB […]. The Formamide/EB mixture was centrifuged and supernatant absorbance was measured at 600 nm (Shimadzu Spectrophotometer, UV-1601; Japan). extravasation was calculated as ng EB per mg tissue.

[3] = target: RET (Homo sapiens, UniProt P07949); test: In vitro multiple-kinase inhibition assay, RET; format: biochemical
Protocol: (§1) In vitro multiple-kinase inhibition assay. […] Kinase enzymatic activity of the tested compounds was evaluated against a reference kinase inhibitor at 10 μM (Table 2).
(§2) The multiple kinases activity at single dose concentration of 10 μM was performed, c-Kit, c-Raf, c-Src, RET served as the enzyme source. […] Kinase-Glo Plus Luminescence kinase assay kit (Promega#V3772), ADP-Glo Luminescence assay kit was used for c-kit assay (Supplementary). […]
(§3) mM MgCl2, 0.1 mg/ml BSA, 1 mM DTT, 10 µM ATP, Kinase substrate and VEGFR. After the enzymatic reaction, 50 µl of Kinase-Glo Plus Luminescence kinase assay solution (Promega) was added to each reaction and incubate the plate for 5 minutes at room temperature.
(§4) Luminescence signal was measured using a BioTek Synergy 2 microplate reader. VEGFR activity assays were performed in duplicate at each concentration.
(§5) The luminescence data were analyzed using the computer software, Graphpad Prism. The difference between luminescence intensities in the absence of VEGFR (Lut) and in the presence of VEGFR (Luc) was defined as 100 % activity (Lut – Luc). Using luminescence signal (Lu) in the presence of the compound, % activity was calculated as:
(§6) % activity = {(Lut - Lu)/(Lut - Luc)}×100%, where Lu= the luminescence intensity in the […]
(§7) IC50 determination for inhibitor against VEGFR was calculated. The values of % activity versus a series of compound concentrations (1 nM - 10 nM - 100 nM - 1 µM - 10 µM) were then […]
(§8) or Hill coefficient. The IC50 value was determined by the concentration causing a half-maximal […]
(§9) In vitro multiple-kinase inhibition assay
(§10) Luminescence signal was measured using a BioTek Synergy 2 microplate reader […]
(§11) The luminescence data were analyzed using the same computer software and the same protocol

[4] = system: HUVEC umbilical vein endothelial cells; test: In vitro HUVEC anti-proliferative assay (alamarBlue); format: cell-based; settings: Homo sapiens, HUVEC proliferation at 10 μM, 72 hours
[5] = target: phospho-VEGFR-2 (Tyr951) (Mus musculus, UniProt P35918); test: Immunohistochemistry of EAC solid tumor sections, phospho-VEGFR-2; settings: oral treatment of EAC-bearing mice
[6] = target: T1, VEGFR-2 (KDR) (Homo sapiens, UniProt P35968); test: In vitro VEGFR-2 tyrosine kinase activity (Kinase-Glo Plus luminescence, BPS Bioscience); format: biochemical; settings: 5 concentrations 1 nM - 10 μM
T1 construct: purchased BPS Bioscience 40301

[7] = target: c-Src (Homo sapiens, UniProt P12931); test: In vitro multiple-kinase inhibition assay, c-Src; format: biochemical
Protocol: as §1, §2, §3, §4, §5, §6, §7, §8, §9, §10, §11

[8] = target: c-Kit (Homo sapiens, UniProt P10721); test: In vitro multiple-kinase inhibition assay, c-Kit (ADP-Glo); format: biochemical
Protocol: as §1, §2, §3, §4, §5, §6, §7, §8, §9
The assay was performed using the same conditions for VEGFR-2 activity assay (section 5.2.1.1). The assays for c-Kit was an exception, it was performed using ADP-Glo Kinase assay reagents (Promega). It measures kinase activity by quantitating the ADP amount produced from the enzymatic reaction. The luminescent signal from the assay is correlated with the amount of ADP present and is directly correlated with the amount of kinase activity. Other conditions are same to the previous section except the final reaction volume was reduced to 25 µl. After the 40 min kinase reaction at 30 °C, 25 µl of ADP-Glo reagent was added and incubated for 45 min at room temperature followed by another 50 min incubation with 50 µl of Kinase detection mixture.
as §10, §11

[9] = system: Ehrlich ascites carcinoma (EAC) solid tumor; test: In vivo anticancer activity, EAC solid tumor murine model; design: species or system Swiss albino mice; settings: for TGI (%): once daily for 8 consecutive days; for Histopathological examination of EAC tumor sections (necrosis): hematoxylin-eosin, 40x
Protocol: Animals. Female Swiss albino mice weighing 15–20 g were used in the present study. They were obtained from the animal breeding laboratory, National Cancer Institute (NCI), Cairo University, Egypt. Animals were kept in our animal facility, faculty of pharmacy, Ain Shams university at 25 ± 2 °C and a relative humidity of 40–45% with alternative day and night cycles of 12 h each. Animals had free access to pellet food and water ad libitum. Standard diet pellets (El-Nasr, Abu Zaabal, Egypt) contained not less than 20% protein, 5% fiber, 3.5% fat, 6.5% ash and a vitamin mixture. Animal care and experiments were conducted in accordance with the protocols approved by the Ethics Research Committee, Faculty of Pharmacy, Ain Shams University, following the Institutional Animal Care and Use Committee guidelines.
Tumor cells preparation and transplantation. Ehrlich ascites carcinoma (EAC) cells were obtained from NCI, Cairo University, Egypt. EAC cells were maintained in the ascitic form in Swiss albino mice by intraperitoneal transplantation of each mouse every 10 days. Ascitic fluid was drawn from tumor-bearing mice at the log phase (7–8th day of tumor bearing) of the tumor cells. The freshly drawn fluid was diluted with ice-cold sterile isotonic saline. 200 μl tumor cell suspension containing 2 × 10^6 tumor cells were then subcutaneously injected in each mouse.
Experimental design. Swiss albino mice were divided into six groups (n = 6 per group).
Evaluation of effectiveness. Tumor growth curve was drawn according to the change in tumor volume from first day of treatment (day 0) till day 7. Longest and shortest diameters of the solid tumor were monitored using a digital vernier caliper. Tumor volume (TV) of each animal was calculated using the following formula: […]
Tumor growth inhibition (TGI) was calculated as follows.
RTV = (Tumor volume at the day of measurement)/Tumor volume at the initial day.
Histopathological Examination
thickness by slidge microtome.
graded ethanol solutions.

[10] = target: c-Raf (Homo sapiens, UniProt P04049); test: In vitro multiple-kinase inhibition assay, c-Raf; format: biochemical
Protocol: as §1, §2, §3, §4, §5, §6, §7, §8, §9, §10, §11

[11] = Toxicity: vital organs' indices and histopathology in EAC solid tumor bearing mice; format: in vivo, Swiss albino mice; settings: for Brain Index / Heart Index / Kidney Index / Liver Index: mean ± SD (n = 6); for Histopathological examination of liver, kidney, heart and brain samples: 10 mg/kg, EAC solid tumor bearing mice (40x)
[12] = system: active caspase 3; test: Immunohistochemistry of EAC solid tumor sections, active caspase 3; settings: oral treatment of EAC-bearing mice
[13] = system: wild-type b-Raf; settings: read-out: wild-type b-Raf IC50; cited from earlier work
[14] = target: fms-related tyrosine kinase 3 receptor (FLT3); settings: cited from earlier work
[15] = target: RET tyrosine kinase; design: method as in PMID 16507829; settings: cited from earlier work
[16] = system: platelet-derived growth factor receptor-B (PDGFR-B); settings: cited from earlier work
[17] = system: stem cell factor receptor (c-KIT); settings: cited from earlier work
[18] = system: VEGFR-2; settings: read-out: VEGFR-2 IC50 of pyrrolo[3,2-d]pyrimidine derivative (III); cited from earlier work

Sequence of c-Raf (P04049 whole entry, species assumed): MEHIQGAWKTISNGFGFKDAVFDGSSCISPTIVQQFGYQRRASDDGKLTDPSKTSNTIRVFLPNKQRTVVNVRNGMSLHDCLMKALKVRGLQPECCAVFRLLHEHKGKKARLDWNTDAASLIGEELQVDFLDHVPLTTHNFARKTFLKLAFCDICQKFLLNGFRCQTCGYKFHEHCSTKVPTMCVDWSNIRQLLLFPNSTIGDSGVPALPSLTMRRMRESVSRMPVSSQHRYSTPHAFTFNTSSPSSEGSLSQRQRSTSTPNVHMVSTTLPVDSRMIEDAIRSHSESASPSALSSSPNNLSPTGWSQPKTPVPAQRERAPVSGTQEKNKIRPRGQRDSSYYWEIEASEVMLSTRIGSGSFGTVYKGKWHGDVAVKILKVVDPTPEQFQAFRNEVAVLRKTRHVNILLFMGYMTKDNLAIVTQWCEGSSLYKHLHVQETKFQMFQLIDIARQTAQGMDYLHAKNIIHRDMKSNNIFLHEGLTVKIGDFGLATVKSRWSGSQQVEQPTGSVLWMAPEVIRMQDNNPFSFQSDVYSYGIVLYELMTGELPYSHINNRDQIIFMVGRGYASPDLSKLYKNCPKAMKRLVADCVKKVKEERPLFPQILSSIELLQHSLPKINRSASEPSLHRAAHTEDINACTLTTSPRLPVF
Sequence of c-Src (P12931 whole entry, species assumed): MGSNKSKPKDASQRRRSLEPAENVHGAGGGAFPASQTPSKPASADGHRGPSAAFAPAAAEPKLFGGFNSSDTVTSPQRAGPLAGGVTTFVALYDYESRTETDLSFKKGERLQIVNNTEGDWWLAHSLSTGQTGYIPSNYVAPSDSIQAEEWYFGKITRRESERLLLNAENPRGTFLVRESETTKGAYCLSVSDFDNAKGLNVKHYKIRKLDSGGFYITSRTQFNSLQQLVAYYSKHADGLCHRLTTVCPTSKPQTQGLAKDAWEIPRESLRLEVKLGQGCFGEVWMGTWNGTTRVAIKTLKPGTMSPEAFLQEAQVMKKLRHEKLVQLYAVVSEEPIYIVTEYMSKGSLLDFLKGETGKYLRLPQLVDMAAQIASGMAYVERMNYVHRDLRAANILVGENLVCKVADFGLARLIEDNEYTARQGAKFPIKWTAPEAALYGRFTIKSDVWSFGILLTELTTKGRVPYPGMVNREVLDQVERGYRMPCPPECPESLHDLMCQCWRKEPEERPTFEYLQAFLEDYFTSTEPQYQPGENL
T1 sequence (P35968 20-1356): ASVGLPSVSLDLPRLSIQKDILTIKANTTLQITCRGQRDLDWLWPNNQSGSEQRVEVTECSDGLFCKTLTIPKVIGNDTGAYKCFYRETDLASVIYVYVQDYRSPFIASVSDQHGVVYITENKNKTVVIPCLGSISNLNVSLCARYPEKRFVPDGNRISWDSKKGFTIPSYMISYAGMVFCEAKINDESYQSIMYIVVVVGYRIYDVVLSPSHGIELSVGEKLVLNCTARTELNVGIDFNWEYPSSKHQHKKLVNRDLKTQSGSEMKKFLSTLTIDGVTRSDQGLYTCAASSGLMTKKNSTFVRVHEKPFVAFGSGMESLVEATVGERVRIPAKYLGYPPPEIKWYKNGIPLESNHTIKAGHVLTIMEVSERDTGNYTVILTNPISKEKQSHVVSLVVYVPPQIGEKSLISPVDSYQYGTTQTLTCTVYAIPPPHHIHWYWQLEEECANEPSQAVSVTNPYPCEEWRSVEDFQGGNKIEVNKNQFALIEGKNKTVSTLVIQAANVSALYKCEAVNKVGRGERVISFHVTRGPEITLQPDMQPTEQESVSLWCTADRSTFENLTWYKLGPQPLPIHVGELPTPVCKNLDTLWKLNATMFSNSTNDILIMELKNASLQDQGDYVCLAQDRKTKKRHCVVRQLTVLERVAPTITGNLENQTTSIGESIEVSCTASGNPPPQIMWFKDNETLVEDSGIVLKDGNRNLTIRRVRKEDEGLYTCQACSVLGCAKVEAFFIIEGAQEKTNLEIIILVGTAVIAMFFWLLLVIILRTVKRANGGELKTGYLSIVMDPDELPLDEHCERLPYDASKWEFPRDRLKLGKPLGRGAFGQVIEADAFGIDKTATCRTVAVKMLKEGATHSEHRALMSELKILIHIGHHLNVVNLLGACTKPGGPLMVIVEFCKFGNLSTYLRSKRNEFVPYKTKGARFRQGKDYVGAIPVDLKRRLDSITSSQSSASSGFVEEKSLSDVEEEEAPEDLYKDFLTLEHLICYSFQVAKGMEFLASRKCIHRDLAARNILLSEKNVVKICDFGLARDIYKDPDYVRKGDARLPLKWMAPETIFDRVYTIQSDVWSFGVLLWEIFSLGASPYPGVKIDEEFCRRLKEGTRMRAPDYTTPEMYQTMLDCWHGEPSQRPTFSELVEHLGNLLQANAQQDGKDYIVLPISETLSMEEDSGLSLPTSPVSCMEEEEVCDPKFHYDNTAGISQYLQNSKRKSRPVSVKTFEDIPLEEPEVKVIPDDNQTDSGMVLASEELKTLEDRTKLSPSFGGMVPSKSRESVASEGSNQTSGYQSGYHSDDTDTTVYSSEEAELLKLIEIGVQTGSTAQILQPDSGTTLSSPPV
Sequence of RET (P07949 29-1114, species assumed): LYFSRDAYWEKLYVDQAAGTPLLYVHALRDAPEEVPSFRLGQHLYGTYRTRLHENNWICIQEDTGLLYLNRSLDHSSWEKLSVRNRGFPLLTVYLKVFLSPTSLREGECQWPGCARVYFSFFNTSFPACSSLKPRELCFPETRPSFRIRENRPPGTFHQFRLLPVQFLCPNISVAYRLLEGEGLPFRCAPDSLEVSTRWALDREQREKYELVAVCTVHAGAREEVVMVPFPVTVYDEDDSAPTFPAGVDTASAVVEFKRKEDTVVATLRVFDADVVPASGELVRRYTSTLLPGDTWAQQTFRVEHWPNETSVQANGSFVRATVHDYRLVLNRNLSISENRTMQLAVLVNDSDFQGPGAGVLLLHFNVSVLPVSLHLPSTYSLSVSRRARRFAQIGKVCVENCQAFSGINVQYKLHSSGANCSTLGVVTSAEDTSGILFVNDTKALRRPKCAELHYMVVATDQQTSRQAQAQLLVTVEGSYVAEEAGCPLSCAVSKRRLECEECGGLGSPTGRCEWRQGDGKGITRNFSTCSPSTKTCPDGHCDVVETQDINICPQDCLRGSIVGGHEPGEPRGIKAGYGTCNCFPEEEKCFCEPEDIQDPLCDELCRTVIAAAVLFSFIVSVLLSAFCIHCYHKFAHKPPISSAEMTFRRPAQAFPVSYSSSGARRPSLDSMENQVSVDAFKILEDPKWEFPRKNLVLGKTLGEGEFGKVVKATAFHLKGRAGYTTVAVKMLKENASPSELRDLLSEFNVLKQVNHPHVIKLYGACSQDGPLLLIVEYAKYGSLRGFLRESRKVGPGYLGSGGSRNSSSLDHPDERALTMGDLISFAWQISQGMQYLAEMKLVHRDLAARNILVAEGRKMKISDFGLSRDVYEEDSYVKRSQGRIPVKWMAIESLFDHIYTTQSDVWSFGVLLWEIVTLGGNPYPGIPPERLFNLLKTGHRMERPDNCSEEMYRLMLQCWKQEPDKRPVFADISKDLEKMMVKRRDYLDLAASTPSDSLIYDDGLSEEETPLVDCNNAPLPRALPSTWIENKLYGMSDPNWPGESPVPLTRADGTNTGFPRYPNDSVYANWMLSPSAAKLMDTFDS
Sequence of phospho-VEGFR-2 (Tyr951) (P35918 20-1345): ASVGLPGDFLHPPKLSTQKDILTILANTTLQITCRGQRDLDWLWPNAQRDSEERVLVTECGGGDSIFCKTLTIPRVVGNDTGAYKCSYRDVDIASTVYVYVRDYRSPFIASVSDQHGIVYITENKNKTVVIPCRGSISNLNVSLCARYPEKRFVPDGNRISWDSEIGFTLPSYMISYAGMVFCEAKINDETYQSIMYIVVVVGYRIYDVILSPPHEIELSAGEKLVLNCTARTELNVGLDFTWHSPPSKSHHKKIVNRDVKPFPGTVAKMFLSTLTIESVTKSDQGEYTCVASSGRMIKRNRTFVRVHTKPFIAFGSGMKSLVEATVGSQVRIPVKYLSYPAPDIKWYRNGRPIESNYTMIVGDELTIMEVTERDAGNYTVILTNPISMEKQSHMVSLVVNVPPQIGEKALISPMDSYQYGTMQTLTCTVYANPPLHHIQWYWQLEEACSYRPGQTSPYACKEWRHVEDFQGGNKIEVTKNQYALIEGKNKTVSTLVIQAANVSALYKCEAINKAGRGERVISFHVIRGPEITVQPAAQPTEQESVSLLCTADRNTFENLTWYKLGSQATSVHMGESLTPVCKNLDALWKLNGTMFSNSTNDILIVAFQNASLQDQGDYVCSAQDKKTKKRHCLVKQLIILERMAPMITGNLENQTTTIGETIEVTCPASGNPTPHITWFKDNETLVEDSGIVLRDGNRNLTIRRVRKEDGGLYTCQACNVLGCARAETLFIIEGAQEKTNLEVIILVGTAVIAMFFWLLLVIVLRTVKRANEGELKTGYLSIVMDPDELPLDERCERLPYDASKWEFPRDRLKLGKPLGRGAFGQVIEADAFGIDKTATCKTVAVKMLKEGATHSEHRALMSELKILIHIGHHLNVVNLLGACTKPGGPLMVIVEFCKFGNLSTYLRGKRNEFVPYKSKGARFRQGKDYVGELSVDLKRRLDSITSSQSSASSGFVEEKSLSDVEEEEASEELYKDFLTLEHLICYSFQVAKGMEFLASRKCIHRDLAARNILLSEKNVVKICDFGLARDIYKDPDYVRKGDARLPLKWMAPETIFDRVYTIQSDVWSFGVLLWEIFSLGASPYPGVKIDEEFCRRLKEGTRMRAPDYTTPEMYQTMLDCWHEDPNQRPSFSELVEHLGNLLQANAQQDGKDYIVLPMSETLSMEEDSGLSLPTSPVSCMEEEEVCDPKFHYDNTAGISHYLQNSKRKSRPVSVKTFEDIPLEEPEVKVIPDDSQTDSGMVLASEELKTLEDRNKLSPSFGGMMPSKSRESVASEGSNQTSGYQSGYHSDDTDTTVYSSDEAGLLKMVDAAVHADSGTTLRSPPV

Structure (SMILES): Cc1ccc(NC(=O)Nc2ccc(Oc3ncnc4sc5c(c34)CCCC5)cc2)cc1Cl [Compound 21e]
- %MVD in EAC solid tumor [1]: reduction of %MVD
- Antiangiogenic effect in Miles vascular permeability assay [2]: confirmed the antiangiogenic effects
- inhibition at 10 µM [3]: 91%
- activity at 10 µM ([4]; read-out: % Cell growth): 54%
- inhibition at 10 µM ([4]; read-out: % Cell inhibition): 46%
- VEGFR-2 phosphorylation in EAC solid tumor [5]: decreased VEGFR-2 phosphoryaltion
- IC50 [6]: 21 nM
- inhibition at 10 µM [7]: 6%
- inhibition at 10 µM [8]: 64%
- Tumor Index ([9]; 5 mg/kg/day po, 8 consecutive days, mean ± SD, n = 6): 0.041 ± 0.007
- TGI (%) ([9]; 5 mg/kg/day po): 79.1%
- Histopathological examination of EAC tumor sections (necrosis) ([9]; 5 mg/kg): moderate diffuse necrosis
- TGI (%) ([9]; 10 mg/kg/day po): 82.7%
- Histopathological examination of EAC tumor sections (necrosis) ([9]; 10 mg/kg): severe necrosis in a wide area
- inhibition at 10 µM [10]: 71%
- Brain Index ([11]; 5 mg/kg/day po): 0.0167 ± 0.002
- Heart Index ([11]; 5 mg/kg/day po): 0.0044 ± 0.0013
- Kidney Index ([11]; 5 mg/kg/day po): 0.012 ± 0.002
- Liver Index ([11]; 5 mg/kg/day po): 0.048 ± 0.006
- Brain Index ([11]; 10 mg/kg/day po): 0.0174 ± 0.002
- Heart Index ([11]; 10 mg/kg/day po): 0.0056 ± 0.0009
- Kidney Index ([11]; 10 mg/kg/day po): 0.013 ± 0.002
- Liver Index ([11]; 10 mg/kg/day po): 0.057 ± 0.007
- Histopathological examination of liver, kidney, heart and brain samples [11]: without any histopathological alterations in liver, kidney and brain
- Toxicity (overall statement) ([11]; oral, 5 and 10 mg/kg/day for 8 consecutive days): did not show any noticeable toxicity
- Active caspase 3 levels in EAC solid tumor [12]: increased active caspase 3 levels

Structure (SMILES): CNC(=O)c1cc(Oc2ccc(NC(=O)Nc3ccc(Cl)c(C(F)(F)F)c3)cc2)ccn1 [Sorafenib]
- IC50 [13]: 25 nM
- IC50 [14]: 33 nM
- IC50 [15]: 50 nM
- IC50 [16]: 57 nM
- Histopathological examination of EAC tumor sections (necrosis) ([9]; 10 mg/kg): wide severe necrosis
- inhibition at 1 µM ([10]; read-out: Inhibition %, c-Raf, reference inhibitor): 92%
- Histopathological examination of liver, kidney, heart and brain samples [11]: Degenerative changes were found in the hepatocytes and hippocampus
- IC50 [17]: 68 nM

Structure (SMILES): Cn1ccc2ncnc(Oc3ccc(NC(=O)Nc4cccc(C(F)(F)F)c4)c(F)c3)c21 [III]
- IC50 [18]: 6.2 nM
